According to EP0476120B1, “PROCESS FOR PREPARING EQUIMOLAR SALTS OF ASPARTIC ACID AND MAGNESIUM, MAGNESIUM ASPARTATE SALT OBTAINED BY SAID PROCESS AND ITS APPLICATIONS” (LA[…] SPINDLER, priority 1990, dated 1991):
Where “and” joins values, the source holds several entries; their conditions need not be identical. Identical values can stand only once. Like-named read-outs stand apart in the source and are kept apart here.

Key:
souris [1] = conditions: mouse
From the text: (§1) Ces études ont été réalisées chez des souris mâles, de souche NMRI-Han, réparties au hasard en lots de 15 souris (séries traitées) et 20 souris (série contrôle).
La motilité a été mesurée à l'aide d'un actimètre "type Dews" (Brit. J. Pharmacol. 1953, 8 : 46). Les animaux sont placés un par un dans une enceinte rectangulaire en matière plastique transparente (mesures intérieures : L = 24 cm, l = 15 cm, h = 9,5 cm), couverte par un grillage métallique et traversée par deux faisceaux infra-rouges perpendiculaires situés à 2 cm au-dessus du plancher (médianes de l'enceinte); ces deux faisceaux viennent frapper deux cellules photo-électriques reliées à un compteur d'impulsions déclenché à chaque fois que l'animal coupe un des faisceaux. Les actimètres ont été placés dans une pièce non insonorisée mais en dehors de tout bruit aigu, à une température de l'ordre de 21°C.
L'activité motrice a été mesurée au cours des 5 premières minutes (exploration non anxiogène) puis entre 5 et 15 minutes (activité basale non anxiogène).
(§2) Les doses ont été calculées selon une progression géométrique de base 700 (correspondant au 1/10 de la DL 50) et de raison 2, soit respectivement 175, 350, 700 et 1400 mg.kg⁻¹.
(§3) Les traitements sont réalisés 60 minutes avant le test.
(§4) Il est identique à celui décrit dans l'exemple précédent.
(§5) Les doses ont été calculées selon une progression géométrique de base 700 (correspondant au 1/10 de la DL 50) et de raison 2, soit respectivement 10,95; 21,9; 43,8; 87,5; 175; 350; 700 mg/kg. […] Les derniers traitements ont été réalisés 60 minutes avant le test.

souris [2] = conditions: mouse; for animaux ne présentant pas de comportement anxiogène (miction, défécation): controls 20 %; for souris présentant une défécation et une miction émotionnelles: controls 85 p. 100
Protocol: as §1
Enfin, l'effet à l'égard des manifestations dites émotionnelles est mesuré sur la miction et la défécation au cours des 3 minutes passées dans le cylindre et permet le calcul d'une DA 50 dite "anti-émotionnelle".
as §2, §3, §4, §5

[3] = tested on: singes cynomolggus (Macaca fascicularis); conditions: monkey
From the text: L'étude a été réalisée chez sept singes cynomolggus (Macaca fascicularis), de sexe mâle et femelle, pesant entre 2 et 5 kg.
Un mois avant le début de l'étude, sous anesthésie générale (kétamine + xylazine) huit électrodes (boules d'argent) ont été implantées dans la table osseuse, au niveau des aires frontale, centrale, pariétale et occipitale droites et gauche. L'électrocorticogramme a été enregistré sur un électroencéphalographe REEGA mini-huit (Alvar Electronic) en dérivations monopolaires par rapport à une référence commune.
Les enregistrements ont été réalisés sur des animaux habitués au siège à contention, en position assise, dans une pièce calme mais non insonorisée, en ambiance lumineuse tamisée.
Les huit dérivations EEG ont été analysées simultanément par un Neuromapper 1620 (Neuroscience) qui extrait du signal les transformées de Fourier ("Fast Fourier Transform" : FFT). En fait, 90 échantillons de 2 secondes, soit 3 minutes de tracé exempt d'artefact, ont été analysés. Les données recueillies correspondent à l'amplitude (»V) de chacune des 5 bandes de fréquence EEG classiques selon les bornes suivantes : delta de 0 à 4 Hz ; thêta de 7 à 8 Hz ; alpha de 8 à 13 Hz, bêta₁ de 13 à 20 Hz ; bêta₂ de 20 à 30 Hz.
Pour chacune de ces bandes ont ensuite été calculées : • Les puissances absolues en »V² • les puissances relatives (%), c'est-à-dire la puissance de chacune des bandes de fréquence rapportée à la puissance totale du spectre (power) • la "SEF 95 % (Spectral Edge Frequency 95 %) qui est la fréquence en deçà de laquelle se situent 95 % de la puissance totale du spectre, • le rapport entre fréquences rapides et fréquences lentes : alpha+ bêta/delta + thêta ( α+β/δ+ϑ [formula] )
La dernière ingestion a précédé de 1 heure la seconde administration de diazépam.
Le diazépam (ampoules injectables - Valium® 10 - Roche) a été administré par voie orale, en solution aqueuse, sous un volume de 10 ml/singe, à des doses comprises entre 0,5 mg.kg⁻¹ et 4 mg.kg⁻¹ (doses différentes du fait d'une sensibilité individuelle propre à chaque sujet).
100 (le seuil de probabilité statistique choisi peut paraître élevé ; il est en rapport avec le faible nombre de sujets : n=7). L'ensemble de l'analyse statistique a été obtenu grâce au programme statistique SPSS/PC⁺ (SPSS Inc., Chicago)

[4] = repeated daily dosing (13 days), 10.95 mg/kg P.O., last dose 60 min before test
[5] = repeated daily dosing (13 days), 21.9 mg/kg P.O., last dose 60 min before test
[6] = repeated daily dosing (13 days), 43.8 mg/kg P.O., last dose 60 min before test, 43.8 mg/kg
[7] = repeated daily dosing (13 days), 43.8 mg/kg P.O., last dose 60 min before test, listed as Mag, 43.8 mg/kg
[8] = repeated daily dosing (13 days), 87.5 mg/kg P.O., last dose 60 min before test
[9] = repeated daily dosing (13 days), 175 mg/kg P.O., last dose 60 min before test
[10] = repeated daily dosing (13 days), 350 mg/kg P.O., last dose 60 min before test, 350 mg/kg
[11] = repeated daily dosing (13 days), 350 mg/kg P.O., last dose 60 min before test, listed as Mag, 350 mg/kg
[12] = repeated daily dosing (13 days), 700 mg/kg P.O., last dose 60 min before test
[13] = single dose 175 mg.kg⁻¹ P.O., 60 min before test
[14] = single dose 350 mg.kg⁻¹ P.O., 60 min before test
[15] = single dose 700 mg.kg⁻¹ P.O., 60 min before test
[16] = single dose 700 mg.kg⁻¹ P.O., 60 min before test, listed as Mag
[17] = single dose 1400 mg.kg⁻¹ P.O., 60 min before test

Substance: α-β-aspartate de magnésium
- Activité motrice 0-5 minutes, nombre de coupures de faisceaux (moyenne) (souris [1]; [4]): 98
- Activité motrice 0-15 minutes, nombre de coupures de faisceaux (moyenne) (souris [1]; [4]): 221
- Activité motrice 5-15 minutes, nombre de coupures de faisceaux (moyenne) (souris [1]; [4]): 123
- Activité motrice 0-5 minutes, nombre de coupures de faisceaux (moyenne) (souris [1]; [5]): 104
- Activité motrice 0-15 minutes, nombre de coupures de faisceaux (moyenne) (souris [1]; [5]): 237
- Activité motrice 5-15 minutes, nombre de coupures de faisceaux (moyenne) (souris [1]; [5]): 133
- Activité motrice 0-15 minutes, nombre de coupures de faisceaux (moyenne) (souris [1]; repeated daily dosing (13 days), 43.8 mg/kg P.O., last dose 60 min before test): 232
- Activité motrice 0-5 minutes, nombre de coupures de faisceaux (moyenne) (souris [1]; [6]): élévation significative
- Activité motrice 5-15 minutes, nombre de coupures de faisceaux (moyenne) (souris [1]; [6]): élévation significative
- Activité motrice 0-5 minutes, nombre de coupures de faisceaux (moyenne) (souris [1]; [7]): 104
- Activité motrice 5-15 minutes, nombre de coupures de faisceaux (moyenne) (souris [1]; [7]): 128
- Activité motrice 0-5 minutes, nombre de coupures de faisceaux (moyenne) (souris [1]; [8]): 99
- Activité motrice 0-15 minutes, nombre de coupures de faisceaux (moyenne) (souris [1]; [8]): 195
- Activité motrice 5-15 minutes, nombre de coupures de faisceaux (moyenne) (souris [1]; [8]): 96
- Activité motrice 0-5 minutes, nombre de coupures de faisceaux (moyenne) (souris [1]; [9]): 106
- Activité motrice 0-15 minutes, nombre de coupures de faisceaux (moyenne) (souris [1]; [9]): 228
- Activité motrice 5-15 minutes, nombre de coupures de faisceaux (moyenne) (souris [1]; [9]): 122
- Activité motrice 0-15 minutes, nombre de coupures de faisceaux (moyenne) (souris [1]; repeated daily dosing (13 days), 350 mg/kg P.O., last dose 60 min before test): 248
- Activité motrice 0-5 minutes, nombre de coupures de faisceaux (moyenne) (souris [1]; [10]): élévation significative
- Activité motrice 5-15 minutes, nombre de coupures de faisceaux (moyenne) (souris [1]; [10]): élévation significative
- Activité motrice 0-5 minutes, nombre de coupures de faisceaux (moyenne) (souris [1]; [11]): 107
- Activité motrice 5-15 minutes, nombre de coupures de faisceaux (moyenne) (souris [1]; [11]): 141
- Activité motrice 0-5 minutes, nombre de coupures de faisceaux (moyenne) (souris [1]; [12]): 104
- Activité motrice 0-15 minutes, nombre de coupures de faisceaux (moyenne) (souris [1]; [12]): 230
- Activité motrice 5-15 minutes, nombre de coupures de faisceaux (moyenne) (souris [1]; [12]): 126
- Activité motrice 0-5 minutes, nombre de coupures de faisceaux (moyenne) (souris [1]; [13]): 100
- Activité motrice 0-15 minutes, nombre de coupures de faisceaux (moyenne) (souris [1]; [13]): 172
- Activité motrice 5-15 minutes, nombre de coupures de faisceaux (moyenne) (souris [1]; [13]): 72
- Activité motrice 0-5 minutes, nombre de coupures de faisceaux (moyenne) (souris [1]; [14]): 96
- Activité motrice 0-15 minutes, nombre de coupures de faisceaux (moyenne) (souris [1]; [14]): 213
- Activité motrice 5-15 minutes, nombre de coupures de faisceaux (moyenne) (souris [1]; [14]): 117
- Activité motrice 0-5 minutes, nombre de coupures de faisceaux (moyenne) (souris [1]; [15]): augmentation statistiquement significative
- Activité motrice 0-15 minutes, nombre de coupures de faisceaux (moyenne) (souris [1]; [15]): 258
- Activité motrice 5-15 minutes, nombre de coupures de faisceaux (moyenne) (souris [1]; [15]): augmentation statistiquement significative
- Activité motrice 0-5 minutes, nombre de coupures de faisceaux (moyenne) (souris [1]; [16]): 113
- Activité motrice 5-15 minutes, nombre de coupures de faisceaux (moyenne) (souris [1]; [16]): 145
- Activité motrice 0-5 minutes, nombre de coupures de faisceaux (moyenne) (souris [1]; [17]): 110
- Activité motrice 0-15 minutes, nombre de coupures de faisceaux (moyenne) (souris [1]; [17]): 214
- Activité motrice 5-15 minutes, nombre de coupures de faisceaux (moyenne) (souris [1]; [17]): 104
- DA 50 (enceinte anxiogène, sujets ne présentant pas de comportement anxieux) (souris [2]; repeated administration over 13 days P.O., limits 11,26 - 68,66 mg/kg): 27,8 mg/kg and 28 mg/kg and 27,81 mg/kg
- animaux ne présentant pas de comportement anxiogène (miction, défécation) (souris [2]; repeated dosing (13 days), 175 mg/kg P.O.): 73,3%
- animaux ne présentant pas de comportement anxiogène (miction, défécation) (souris [2]; repeated dosing (13 days), 350 mg/kg P.O.): 60%
- animaux ne présentant pas de comportement anxiogène (miction, défécation) (souris [2]; repeated dosing (13 days), 700 mg/kg P.O.): 66,7%
- animaux ne présentant pas de comportement anxiogène (miction, défécation) (souris [2]; repeated dosing (13 days), 10,95 mg/kg P.O.): 40%
- animaux ne présentant pas de comportement anxiogène (miction, défécation) (souris [2]; repeated dosing (13 days), 21,9 mg/kg P.O.): 40%
- animaux ne présentant pas de comportement anxiogène (miction, défécation) (souris [2]; repeated dosing (13 days), 43,8 mg/kg P.O.): 60%
- animaux ne présentant pas de comportement anxiogène (miction, défécation) (souris [2]; repeated dosing (13 days), 87,5 mg/kg P.O.): 66,7%
- souris présentant une défécation et une miction émotionnelles (souris [2]; single dose 175 mg.kg⁻¹ P.O.): 40%
- souris présentant une défécation et une miction émotionnelles (souris [2]; single dose 350 mg.kg⁻¹ P.O.): 53%
- souris présentant une défécation et une miction émotionnelles (souris [2]; single dose 700 mg.kg⁻¹ P.O.): 27%
- souris présentant une défécation et une miction émotionnelles (souris [2]; single dose 1400 mg.kg⁻¹ P.O.): 73%
- DA 50 "anti-émotionnelle" (souris [2]; single dose P.O., confidence limits (5 p. 100) 160 - 2082 mg.kg⁻¹): 577 mg/kg
- "SEF 95%" augmentée ([3]; 50 mg.kg⁻¹ orally twice daily for two weeks, before diazepam): 0,5 Hz
- puissance relative de la bande β accrue ([3]; 50 mg.kg⁻¹ orally twice daily for two weeks, resting EEG, individual values of 4 of 7 subjects): 4,4% and 3,6% and 6,2% and 13%
- ondes delta accrues ([3]; 50 mg.kg⁻¹ orally twice daily for two weeks, individual values among the 3 other monkeys): 5% and 8%
- proportion relative de la bande β₂ ([3]; after two weeks of α-β-aspartate de magnésium, before diazepam, reference before any drug 20 %): 23%
